In patent publication US20210128554A1, “ANTI-FLAVIVIRIDAE ACTIVITY OF ANTI-RETROVIRAL NON-NUCLEOSIDE (NNRTIS) AND NUCLEOSIDE REVERSE TRANSCRIPTASE INHIBITORS (NNRTIS)” (priority 2016, published 2021):

System: Zika virus
Assay: ZIKV copy numbers released by primary human fetal astrocytes treated with NNRTIs (Real-time Q-RT-PCR)
Format: cell-based
Conditions: ZIKV 0.1 MOI, 5, 10, and 25 μM at 24, 48, 72 hrs, culture media at 96 hrs
Protocol: FIG. 6 is a graph showing that Zika virus replication is suppressed by antiretroviral HIV-1 non-nucleoside reverse transcriptase inhibitors (NNRTIs) in primary astrocytes: Primary human fetal astrocytes were plated in 6 well tissue culture dishes and infected with ZIKV at 0.1 MOI. At 24, 48, and 72 hrs post-infections, cells were treated with increasing concentrations of anti-retroviral non-nucleoside reverse transcriptase inhibitors Rilpivirine, Efavirenz, and Etravirine at 5, 10, and 25 μM concentrations. Culture media of the infected cells were collected at 96 hrs post-infections and subjected to Real-time Q-RT-PCR for the detection and quantification of ZIKV copy numbers released by infected cells.

| Compound | Zika virus replication (ZIKV copy numbers released by infected cells) |
| --- | --- |
| O=C1Nc2ccc(Cl)cc2[C@@](C#CC2CC2)(C(F)(F)F)O1 [Efavirenz] | suppressed |
| Cc1cc(C#N)cc(C)c1Oc1nc(Nc2ccc(C#N)cc2)nc(N)c1Br [Etravirine] | suppressed |
